# Reference: patent publication US10570184B2, “GLP-1/glucagon receptor co-agonists for medical use” (Novo Nordisk A/S, priority 2014, dated 2020)
# Starred links: 1 amine or outer side, 2 acyl side, 3 side chain; linkers in the order of their positions; H or OH if unused. Non-standard residues stand in square brackets, D forms with d. Residues, ends and D or L forms follow the SMILES beside them. Groups on a side chain read outwards from the residue. *: point of attachment. C18 diacid = O=C(O)CCCCCCCCCCCCCCCCC(=O)*; γGlu = O=C(O)[C@H](CCC(=O)[*:2])N[*:1]; Ac4c = NC1(C(=O)O)CCC1; AEEA = NCCOCCOCC(=O)O; Aib = CC(C)(N)C(=O)O
# Key:
# human GLP-1 receptor [1] = target: T1, human GLP-1 receptor (Homo sapiens, UniProt P43220); experiment: Assay (I)(a) GLP-1 receptor activation, CRE luciferase reporter gene assay in BHK cells; format: cell-based; settings: without presence of serum albumin; read-out: GLP-1R EC50 (pM) [Assay (I)(a)]
# T1 construct: expressed in transfected cells; host or cells: membranes of BHK cells (parent BHKTS13), clone FCW467-12A
# Description: The purpose of this example was to test the activity or potency, of the glucagon derivatives of the invention, in vitro. The in vitro potency is the measure of human GLP-1 receptor (GLP-1R) or glucagon receptor (glucagonR) activation, respectively, in a whole cell assay. In vitro potency was determined by measuring the response of human GLP-1 or glucagon receptor, respectively, in a reporter gene assay. The assay was performed in a stably transfected BHK cell line that expresses either the human GLP-1 receptor or the human glucagon receptor and contains the DNA for the cAMP response element (CRE) coupled to a promoter and the gene for firefly luciferase (CRE luciferase). […] When assay incubation was completed, the luciferase substrate (luciferin) was added and the enzyme converted luciferin to oxyluciferin and produces bioluminescence. The luminescence was measured as the readout for the assay. The cells used in this assay (clone FCW467-12A/KZ10-1) were BHK cells with BHKTS13 as a parent cell line. The cells were derived from a clone (FCW467-12A) that expresses the human GLP-1 receptor and were established by further transfection with CRE luciferase to obtain the current clone. The cells were cultured at 5% CO2 in DMEM medium with 10% FBS, 1×GlutaMAX, 1 mg/ml G418, 240 nM MTX (methotrexate) and 1% pen/strep (penicillin/streptomycin). They were aliquoted and stored in liquid nitrogen. Before each assay, an aliquot was taken up and washed three times in PBS before being suspended at the desired concentration in assay medium. For 96-well plates the suspension was made to give a final concentration of 5×10EE3 cells/well. The following chemicals were used in the assay: Pluronic F-68 (10%) (Gibco 2404), ovalbumin (Sigma A5503), DMEM w/o phenol red (Gibco 11880-028), 1 M Hepes (Gibco 15630), Glutamax 100× (Gibco 35050) and steadylite plus (PerkinElmer 6016757). Assay Medium consisted of DMEM w/o phenol red, 10 mM Hepes, 1× GlutaMAX, 2% Ovalbumin and 0.2% Pluronic F-68. Cell stocks were thawed in a 37° C. water bath. Cells were washed three times in PBS. The cells were counted and adjusted to 5×10EE3 cells/50 μl (1×10EE5 cells/ml) in Assay Medium. A 50 μl aliquot of cells was transferred to each well in the assay plate. Stocks of the test compounds and reference compounds were diluted to a concentration of […] in Assay Medium. Compounds were diluted 10-fold to give the following concentrations: 2×10EE-6 M, 2×10EE-7 M, 2×10EE-8 M; 2×10EE-9 M, 2×10EE-10 M, 2×10EE-11 M, 2×10EE-12 M and 2×10EE-13 M. For each compound a blank assay medium control was also included. A 50 μl aliquot of compound or blank was transferred from the dilution plate to the assay plate. Compounds were tested at the following final concentrations: 1×10EE-6 M, 1×10EE-7 M, 1×10EE-8 M; 1×10EE-9 M, 1×10EE-10 M, 1×10EE-11 M and 1×10EE-12 M and 1×10EE-13 M. The assay plate was incubated for 3 h in a 5% CO2 incubator at 37° C. The assay plate was removed from the incubator and allowed to stand at room temperature for 15 min. A 100 μl aliquot of steadylite plus reagent was added to each well of the assay plate (reagent is light sensitive). Each assay plate was covered with aluminum foil to protect it from light and shaken for 30 min at room temperature. Each assay plate was read in a Perkin Elmer TopCount NXT instrument. The data from the TopCount instrument was transferred to GraphPad Prism software. The software performed a non-linear regression (log(agonist) vs response-Variable slope (four parameter)). EC50 values were calculated by the software and reported in pM.
# human GLP-1 receptor [2] = target: T1, human GLP-1 receptor; experiment: Assay (II)(a) GLP-1 receptor binding, 125I-GLP-1 displacement SPA on BHK membranes; settings: without presence of serum albumin; read-out: GLP-1R IC50 (nM) [Assay (II)(a)]
# How it was run: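 Membranes from BHK cells (clone FCW467-12A) stably expressing human GLP-1R were incubated with serially diluted compounds (8×10EE-13 to 8×10EE-7 M before addition) and [125I]-GLP-1-(7-36)NH2 with WGA SPA beads, 2 h at 30° C, pH 7.4. IC50 taken from displacement by non-linear regression. Run at ≤0.001% or 2.0% final serum albumin.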
# T1 sequence (P43220 24-463): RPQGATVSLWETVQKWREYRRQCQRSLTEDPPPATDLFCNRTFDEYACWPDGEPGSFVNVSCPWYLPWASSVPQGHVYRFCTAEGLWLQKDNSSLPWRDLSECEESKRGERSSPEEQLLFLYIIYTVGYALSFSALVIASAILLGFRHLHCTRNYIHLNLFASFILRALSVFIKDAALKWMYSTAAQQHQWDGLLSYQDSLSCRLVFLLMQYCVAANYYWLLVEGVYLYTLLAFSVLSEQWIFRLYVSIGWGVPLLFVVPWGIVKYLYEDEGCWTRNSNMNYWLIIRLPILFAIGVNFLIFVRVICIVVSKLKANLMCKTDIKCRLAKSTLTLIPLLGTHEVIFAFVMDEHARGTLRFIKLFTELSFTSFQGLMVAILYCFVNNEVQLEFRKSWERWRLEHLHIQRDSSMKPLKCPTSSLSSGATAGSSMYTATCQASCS
Compound,EC50 (human GLP-1 receptor [1]),IC50 (human GLP-1 receptor [2])
"CC[C@H](C)[C@H](NC(=O)[C@H](CC(C)C)NC(=O)[C@H](Cc1c[nH]c2ccccc12)NC(=O)[C@H](CCC(N)=O)NC(=O)[C@@H](NC(=O)[C@H](Cc1ccccc1)NC(=O)[C@H](CCC(=O)O)NC(=O)[C@H](CCCNC(=N)N)NC(=O)[C@H](C)NC(=O)[C@H](CCCNC(=N)N)NC(=O)[C@H](CCCNC(=N)N)NC(=O)[C@H](C)NC(=O)[C@H](CC(=O)O)NC(=O)[C@H](CC(C)C)NC(=O)[C@H](Cc1ccc(O)cc1)NC(=O)[C@H](CCCCN)NC(=O)[C@H](CO)NC(=O)[C@H](CC(C)C)NC(=O)[C@H](CC(=O)O)NC(=O)[C@H](CO)NC(=O)[C@@H](NC(=O)[C@H](Cc1ccccc1)NC(=O)[C@@H](NC(=O)CNC(=O)[C@H](CCC(N)=O)NC(=O)C(C)(C)NC(=O)[C@@H](N)Cc1c[nH]cn1)[C@@H](C)O)[C@@H](C)O)C(C)C)C(=O)N[C@@H](CCCCNC(=O)COCCOCCNC(=O)COCCOCCNC(=O)CC[C@H](NC(=O)CC[C@H](NC(=O)CC[C@H](NC(=O)CCCCCCCCCCCCCCCCC(=O)O)C(=O)O)C(=O)O)C(=O)O)C(=O)N[C@H](C(N)=O)[C@@H](C)O [Chem. 6, N^ε28-[2-[2-[2-[[2-[2-[2-[[(4S)-4-carboxy-4-[[(4S)-4-carboxy-4-[[(4S)-4-carboxy-4-(17-carboxyheptadecanoylamino)butanoyl]amino]butanoyl]amino]butanoyl]amino]ethoxy]ethoxy]acetyl]amino]ethoxy]ethoxy]acetyl]-[Aib2,Leu10,Ala16,Arg20,Glu21,Ile27,Lys28]-Glucagon amide] (H-H[Aib]QGTFTSDLSKYLDARRAREFVQWLIK([AEEA-AEEA-γGlu-γGlu-γGlu-C18 diacid])T-NH2; N-terminus assumed)",5 pM,0.1 nM
"CC[C@H](C)[C@H](NC(=O)[C@H](CC(C)C)NC(=O)[C@H](Cc1c[nH]c2ccccc12)NC(=O)[C@H](CCC(N)=O)NC(=O)[C@@H](NC(=O)[C@H](Cc1ccccc1)NC(=O)[C@H](CC(=O)O)NC(=O)[C@H](CCC(N)=O)NC(=O)[C@H](C)NC(=O)[C@H](CCCNC(=N)N)NC(=O)[C@H](CCCNC(=N)N)NC(=O)[C@H](CO)NC(=O)[C@H](CCC(=O)O)NC(=O)[C@H](CC(C)C)NC(=O)[C@H](Cc1ccc(O)cc1)NC(=O)[C@H](CCCCN)NC(=O)[C@H](CO)NC(=O)[C@H](CC(C)C)NC(=O)[C@H](CC(=O)O)NC(=O)[C@H](CO)NC(=O)[C@@H](NC(=O)[C@H](Cc1ccccc1)NC(=O)[C@@H](NC(=O)CNC(=O)[C@H](CCC(N)=O)NC(=O)C(C)(C)NC(=O)[C@@H](N)Cc1c[nH]cn1)[C@@H](C)O)[C@@H](C)O)C(C)C)C(=O)N[C@@H](CCCCNC(=O)COCCOCCNC(=O)COCCOCCNC(=O)CC[C@H](NC(=O)CC[C@H](NC(=O)CC[C@H](NC(=O)CCCCCCCCCCCCCCCCC(=O)O)C(=O)O)C(=O)O)C(=O)O)C(=O)N[C@H](C(N)=O)[C@@H](C)O [Chem. 8, N^ε28-[2-[2-[2-[[2-[2-[2-[[(4S)-4-carboxy-4-[[(4S)-4-carboxy-4-[[(4S)-4-carboxy-4-(17-carboxyheptadecanoylamino)butanoyl]amino]butanoyl]amino]butanoyl]amino]ethoxy]ethoxy]acetyl]amino]ethoxy]ethoxy]acetyl]-[Aib2,Leu10,Glu15,Ile27,Lys28]-Glucagon amide] (H-H[Aib]QGTFTSDLSKYLESRRAQDFVQWLIK([AEEA-AEEA-γGlu-γGlu-γGlu-C18 diacid])T-NH2; N-terminus assumed)",7 pM,0.1 nM
"CC[C@H](C)[C@H](NC(=O)[C@H](CC(C)C)NC(=O)[C@H](Cc1c[nH]c2ccccc12)NC(=O)[C@H](CCC(N)=O)NC(=O)[C@@H](NC(=O)[C@H](Cc1ccccc1)NC(=O)[C@H](CC(=O)O)NC(=O)[C@H](CCC(N)=O)NC(=O)[C@H](C)NC(=O)[C@H](CCCNC(=N)N)NC(=O)[C@H](CCCNC(=N)N)NC(=O)[C@H](CO)NC(=O)[C@H](CCC(=O)O)NC(=O)[C@H](CC(C)C)NC(=O)[C@H](Cc1ccc(O)cc1)NC(=O)[C@H](CCCCN)NC(=O)[C@H](CO)NC(=O)[C@@H](NC(=O)[C@H](CC(=O)O)NC(=O)[C@H](CO)NC(=O)[C@@H](NC(=O)[C@H](Cc1ccccc1)NC(=O)[C@@H](NC(=O)CNC(=O)[C@H](CCC(N)=O)NC(=O)C(C)(C)NC(=O)[C@@H](N)Cc1c[nH]cn1)[C@@H](C)O)[C@@H](C)O)C(C)C)C(C)C)C(=O)N[C@@H](CCCCNC(=O)COCCOCCNC(=O)COCCOCCNC(=O)CC[C@H](NC(=O)CC[C@H](NC(=O)CC[C@H](NC(=O)CCCCCCCCCCCCCCCCC(=O)O)C(=O)O)C(=O)O)C(=O)O)C(=O)N[C@H](C(N)=O)[C@@H](C)O [Chem. 10, N^ε28-[2-[2-[2-[[2-[2-[2-[[(4S)-4-carboxy-4-[[(4S)-4-carboxy-4-[[(4S)-4-carboxy-4-(17-carboxyheptadecanoylamino)butanoyl]amino]butanoyl]amino]butanoyl]amino]ethoxy]ethoxy]acetyl]amino]ethoxy]ethoxy]acetyl]-[Aib2,Val10,Glu15,Ile27,Lys28]-Glucagon amide] (H-H[Aib]QGTFTSDVSKYLESRRAQDFVQWLIK([AEEA-AEEA-γGlu-γGlu-γGlu-C18 diacid])T-NH2)",3 pM,0.1 nM
"CC[C@H](C)[C@H](NC(=O)[C@H](CC(C)C)NC(=O)[C@H](Cc1c[nH]c2ccccc12)NC(=O)[C@H](CCC(N)=O)NC(=O)[C@@H](NC(=O)[C@H](Cc1ccccc1)NC(=O)[C@H](CCC(=O)O)NC(=O)[C@H](CCCNC(=N)N)NC(=O)[C@H](C)NC(=O)[C@H](CCCNC(=N)N)NC(=O)[C@H](CCCNC(=N)N)NC(=O)[C@H](CO)NC(=O)[C@H](CCC(=O)O)NC(=O)[C@H](CC(C)C)NC(=O)[C@H](Cc1ccc(O)cc1)NC(=O)[C@H](CCCCN)NC(=O)[C@H](CO)NC(=O)[C@H](CC(C)C)NC(=O)[C@H](CC(=O)O)NC(=O)[C@H](CO)NC(=O)[C@@H](NC(=O)[C@H](Cc1ccccc1)NC(=O)[C@@H](NC(=O)CNC(=O)[C@H](CCC(N)=O)NC(=O)C1(NC(=O)[C@@H](N)Cc2c[nH]cn2)CCC1)[C@@H](C)O)[C@@H](C)O)C(C)C)C(=O)N[C@@H](CCCCNC(=O)CC[C@H](NC(=O)CC[C@H](NC(=O)COCCOCCNC(=O)COCCOCCNC(=O)CC[C@H](NC(=O)CC[C@H](NC(=O)CCCCCCCCCCCCCCCCC(=O)O)C(=O)O)C(=O)O)C(=O)O)C(=O)O)C(=O)N[C@H](C(N)=O)[C@@H](C)O [Chem. 13, N^ε28-[(4S)-4-carboxy-4-[[(4S)-4-carboxy-4-[[2-[2 [2-[[2-[2-[2-[[(4S)-4-carboxy-4-[[(4S)-4-carboxy-4-(17-carboxyheptadecanoylamino)butanoyl]amino]butanoyl]amino]ethoxy]ethoxy]acetyl]amino]ethoxy]ethoxy]acetyl]amino]butanoyl]amino]butanoyl]-[Acb2,Leu10,Glu15,Arg20,Glu21,Ile27,Lys28]-Glucagon amide] (H-H[Ac4c]QGTFTSDLSKYLESRRAREFVQWLIK([γGlu-γGlu-AEEA-AEEA-γGlu-γGlu-C18 diacid])T-NH2)",4 pM,0.1 nM
